Earlier results in patent US7678905B2, “Aminotetrahydropyrans as dipeptidyl peptidase-IV inhibitors for the treatment or prevention of diabetes” (Merck Sharp & Dohme Corp., priority 2006, dated 2010).

Experiments:
cardiac allograft = conditions: rats; survival doubled from day 7
hematopoiesis = conditions: mouse, cyclophosphamide-induced neutropenia
[1] = test system: GRF degradation in plasma

Question: With `CC(C)N1CCC(c2ccccc2)(c2ccccc2)CC1` [Prodipine, Pro-Pro-diphenyl-phosphonate] as the molecule, how does the cardiac allograft survival (cardiac allograft) read?
Answer: Its cardiac allograft survival is 14 day.

Question: For `CC(C)[C@H](N)C(=O)N1CCC[C@H]1B(O)O` [Val-Boro-Pro], which effect on hematopoiesis (hematopoiesis) is on record?
Answer: Its effect on hematopoiesis is “stimulated hematopoiesis”.

Question: With diprotin A as the molecule, how does the “degradation of GRF to GRF[3-44] in plasma” value [1] read?
Answer: The value was “prevented”.
